Values of other authors as cited in patent US20220202720A1, “SUSTAINED RELEASE C[…] AND METHOD OF PREPARATION THEREOF” (PHARMATHEN S.A., priority 2019, published 2022).

Target: recombinant μ-opioid receptor (Homo sapiens, UniProt P35372)
Sequence (P35372 whole entry, species assumed): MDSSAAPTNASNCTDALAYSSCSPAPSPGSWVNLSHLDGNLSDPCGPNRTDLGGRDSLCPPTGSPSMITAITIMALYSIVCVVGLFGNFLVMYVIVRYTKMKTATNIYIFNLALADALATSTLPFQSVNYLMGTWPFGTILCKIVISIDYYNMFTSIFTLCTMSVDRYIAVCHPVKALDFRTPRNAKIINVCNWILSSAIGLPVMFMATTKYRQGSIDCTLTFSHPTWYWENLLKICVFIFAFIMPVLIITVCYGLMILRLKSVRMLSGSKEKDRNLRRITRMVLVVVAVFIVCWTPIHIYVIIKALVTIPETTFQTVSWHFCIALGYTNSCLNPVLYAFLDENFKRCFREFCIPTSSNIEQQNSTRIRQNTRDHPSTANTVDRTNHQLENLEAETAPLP

CC[C@@H](c1cccc(O)c1)[C@@H](C)CN(C)C [Tapentadol]
reduced affinity to recombinant μ-opioid receptor compared to morphine: 18 times
